In publication PMC6118387, “In silico drug absorption tract: An agent-based biomimetic model for human oral drug absorption” (PLoS ONE, 2018):
“And” between values parts separate entries of the source, which are not always exact repeats. Identical values can stand only once. Like-named read-outs stand apart in the source and are kept apart here.

Experiments:
[1] = model drug parameter fixed to literature reported value, cited from earlier work
[2] = Clinical bioequivalence study: plasma concentrations (LC-MS-MS) and noncompartmental PK after oral tablet; assay type: in vivo, human; conditions: for Concentration, individual subjects / concentration at 0 h / concentration at 0.5 h / concentration at 1 h / concentration at 1.5 h / concentration at 2 h / concentration at 3 h / concentration at 4 h / concentration at 6 h / concentration at 8 h / concentration at 10 h / concentration at 12 h / concentration at 24 h / concentration at 48 h / concentration at 72 h / concentration at 96 h: clonazepam 2 mg oral; for concentration at 0 h / concentration at 0.5 h / concentration at 1 h / concentration at 1.5 h / concentration at 2 h / concentration at 3 h / concentration at 4 h / concentration at 6 h / concentration at 8 h / concentration at 10 h / concentration at 12 h / concentration at 24 h / concentration at 48 h / concentration at 72 h / concentration at 96 h: po
[3] = clonazepam, literature referent value, cited from earlier work
[4] = Referent clinical, clonazepam 2 mg tablet oral, N = 14, mean ±1 SD
[5] = human, plasma, 2 mg, plasma, MEAN column of the sheet with 15 subject columns, read-out: Concentration, MEAN of raw data sheet
[6] = human, plasma, 2 mg, plasma, mean ±1 SD N=14, read-out: Concentration, Referent
[7] = human, plasma, 2 mg, plasma, one value per subject (A1-A6, A8, B1-B8; B5 consumed alcohol), read-out: Concentration, individual subjects
[8] = human, plasma, Referent clinical, clonazepam 2 mg tablet oral, N = 14, mean ±1 SD

In the case of `O=C1CN=C(c2ccccc2Cl)c2cc([N+](=O)[O-])ccc2N1` [Clonazepam, clonazepam], the “Pka, In silico acid/base equilibrium constant” value ([1]; first printed value) is listed as 1.86, the “Pka, In silico acid/base equilibrium constant” value ([1]; second printed value) is listed as 11.89 and the CL/F [2, 4] is listed as 3.88 ± 0.68 L/h. The V/F [2, 4] was 186.84 ± 25.25 L, the “Concentration, individual subjects” value ([2]; plasma, 4 h, one value per subject (A1-A6, A8, B1-B8; B5 consumed alcohol)) was 12.61 ng/mL and 14.34 ng/mL and 8.84 ng/mL and 12.65 ng/mL and 11.84 ng/mL and 14.63 ng/mL and 14.50 ng/mL and 12.96 ng/mL and 13.82 ng/mL and 11.06 ng/mL and 13.21 ng/mL and 17.02 ng/mL and 10.16 ng/mL and 10.55 ng/mL and the “Concentration, individual subjects” value ([2]; plasma, 6 h, one value per subject (A1-A6, A8, B1-B8; B5 consumed alcohol)) was 10.50 ng/mL and 9.64 ng/mL and 15.51 ng/mL and 7.70 ng/mL and 10.12 ng/mL and 10.42 ng/mL and 11.00 ng/mL and 12.04 ng/mL and 12.42 ng/mL and 11.68 ng/mL and 12.48 ng/mL and 8.95 ng/mL and 12.72 ng/mL and 9.18 ng/mL and 8.60 ng/mL. The “Concentration, individual subjects” value ([2]; plasma, 8 h, one value per subject (A1-A6, A8, B1-B8; B5 consumed alcohol)) was 8.58 ng/mL and 9.87 ng/mL and 7.12 ng/mL and 7.80 ng/mL and 8.38 ng/mL and 11.29 ng/mL and 11.40 ng/mL and 10.91 ng/mL and 10.98 ng/mL and 11.71 ng/mL and 8.16 ng/mL and 11.31 ng/mL and 8.88 ng/mL and 8.34 ng/mL, the “Concentration, individual subjects” value ([2]; plasma, 10 h, one value per subject (A1-A6, A8, B1-B8; B5 consumed alcohol)) was 8.87 ng/mL and 11.42 ng/mL and 6.58 ng/mL and 7.89 ng/mL and 9.42 ng/mL and 8.97 ng/mL and 9.96 ng/mL and 11.87 ng/mL and 8.66 ng/mL and 9.83 ng/mL and 8.47 ng/mL and 9.69 ng/mL and 7.40 ng/mL and 7.44 ng/mL and the “Concentration, individual subjects” value ([2]; plasma, 12 h, one value per subject (A1-A6, A8, B1-B8; B5 consumed alcohol)) was 8.09 ng/mL and 8.83 ng/mL and 6.28 ng/mL and 6.29 ng/mL and 8.86 ng/mL and 7.97 ng/mL and 9.45 ng/mL and 11.04 ng/mL and 8.02 ng/mL and 9.77 ng/mL and 7.69 ng/mL and 8.43 ng/mL and 7.52 ng/mL and 6.76 ng/mL. For the same molecule, the “Concentration, individual subjects” value ([2]; plasma, 24 h, one value per subject (A1-A6, A8, B1-B8; B5 consumed alcohol)) was 7.01 ng/mL and 7.87 ng/mL and 5.83 ng/mL and 6.96 ng/mL and 7.45 ng/mL and 7.77 ng/mL and 8.74 ng/mL and 8.99 ng/mL and 7.52 ng/mL and 8.66 ng/mL and 7.57 ng/mL and 8.32 ng/mL and 5.43 ng/mL and 6.77 ng/mL, the “Concentration, individual subjects” value ([2]; plasma, 48 h, one value per subject (A1-A6, A8, B1-B8; B5 consumed alcohol)) was 4.72 ng/mL and 5.20 ng/mL and 6.30 ng/mL and 3.61 ng/mL and 5.16 ng/mL and 4.16 ng/mL and 6.22 ng/mL and 4.74 ng/mL and 6.11 ng/mL and 5.31 ng/mL and 5.10 ng/mL and 5.12 ng/mL and 5.25 ng/mL and 4.06 ng/mL and 3.12 ng/mL and the Cmax ([2]; human, plasma, oral, 2 mg, clonazepam, peak of the mean clinical concentration-time profile over 96 hours) was 13.5 ng/mL. The concentration at 0 h [2, 5] was 0 ng/mL, the concentration at 0 h [2, 6] was 0 ng/mL and the concentration at 0 h [2, 7] was 0 ng/mL. For the same molecule, the concentration at 0.5 h [2, 5] was 6.65 ng/mL, the concentration at 0.5 h [2, 6] was 7.13 ± 7.06 ng/mL and the concentration at 1 h [2, 5] was 13 ng/mL. The concentration at 1 h [2, 6] was 13.4 ± 5.29 ng/mL, the concentration at 1.5 h [2, 5] was 13.5 ng/mL and the concentration at 1.5 h [2, 6] was 13.9 ± 3.71 ng/mL. For the same molecule, the concentration at 2 h [2, 5] was 13.1 ng/mL, the concentration at 2 h [2, 6] was 13.3 ± 2.82 ng/mL and the concentration at 2 h [2, 7] was 13.7 ng/mL. For the same molecule, the concentration at 3 h [2, 5] was 12.7 ng/mL, the concentration at 3 h [2, 6] was 12.9 ± 2.36 ng/mL and the concentration at 3 h [2, 7] was 12.5 ng/mL. It also gave a concentration at 4 h ([2]; human, plasma, 2 mg, plasma, 4 h, MEAN column of the sheet with 15 subject columns, read-out: Concentration, MEAN of raw data sheet) of 12.7 ng/mL, a concentration at 4 h ([2]; human, plasma, 2 mg, plasma, 4 h, mean ±1 SD N=14, read-out: Concentration, Referent) of 13 ± 1.82 ng/mL and a concentration at 4 h ([2]; human, plasma, 2 mg, plasma, 4 h, one value per subject (A1-A6, A8, B1-B8; B5 consumed alcohol), read-out: Concentration, individual subjects) of 12.7 ng/mL. It also gave a concentration at 6 h ([2]; human, plasma, 2 mg, plasma, 6 h, MEAN column of the sheet with 15 subject columns, read-out: Concentration, MEAN of raw data sheet) of 10.9 ng/mL, a concentration at 6 h ([2]; human, plasma, 2 mg, plasma, 6 h, mean ±1 SD N=14, read-out: Concentration, Referent) of 11.1 ± 1.87 ng/mL and a concentration at 8 h ([2]; human, plasma, 2 mg, plasma, 8 h, MEAN column of the sheet with 15 subject columns, read-out: Concentration, MEAN of raw data sheet) of 9.62 ng/mL. The concentration at 8 h ([2]; human, plasma, 2 mg, plasma, 8 h, mean ±1 SD N=14, read-out: Concentration, Referent) was 9.8 ± 1.43 ng/mL, the concentration at 8 h ([2]; human, plasma, 2 mg, plasma, 8 h, one value per subject (A1-A6, A8, B1-B8; B5 consumed alcohol), read-out: Concentration, individual subjects) was 9.63 ng/mL and the concentration at 10 h ([2]; human, plasma, 2 mg, plasma, 10 h, MEAN column of the sheet with 15 subject columns, read-out: Concentration, MEAN of raw data sheet) was 9.05 ng/mL. The concentration at 10 h ([2]; human, plasma, 2 mg, plasma, 10 h, mean ±1 SD N=14, read-out: Concentration, Referent) was 9.23 ± 1.31 ng/mL, the concentration at 10 h ([2]; human, plasma, 2 mg, plasma, 10 h, one value per subject (A1-A6, A8, B1-B8; B5 consumed alcohol), read-out: Concentration, individual subjects) was 9.31 ng/mL and the concentration at 12 h ([2]; human, plasma, 2 mg, plasma, 12 h, MEAN column of the sheet with 15 subject columns, read-out: Concentration, MEAN of raw data sheet) was 8.25 ng/mL. The concentration at 12 h ([2]; human, plasma, 2 mg, plasma, 12 h, mean ±1 SD N=14, read-out: Concentration, Referent) was 8.39 ± 1.22 ng/mL, the concentration at 12 h ([2]; human, plasma, 2 mg, plasma, 12 h, one value per subject (A1-A6, A8, B1-B8; B5 consumed alcohol), read-out: Concentration, individual subjects) was 8.78 ng/mL and the concentration at 24 h ([2]; human, plasma, 2 mg, plasma, 24 h, MEAN column of the sheet with 15 subject columns, read-out: Concentration, MEAN of raw data sheet) was 7.53 ng/mL. It also gave a concentration at 24 h ([2]; human, plasma, 2 mg, plasma, 24 h, mean ±1 SD N=14, read-out: Concentration, Referent) of 7.65 ± 0.93 ng/mL, a concentration at 24 h ([2]; human, plasma, 2 mg, plasma, 24 h, one value per subject (A1-A6, A8, B1-B8; B5 consumed alcohol), read-out: Concentration, individual subjects) of 8.02 ng/mL and a concentration at 48 h ([2]; human, plasma, 2 mg, plasma, 48 h, MEAN column of the sheet with 15 subject columns, read-out: Concentration, MEAN of raw data sheet) of 4.95 ng/mL. For the same molecule, the concentration at 48 h ([2]; human, plasma, 2 mg, plasma, 48 h, mean ±1 SD N=14, read-out: Concentration, Referent) was 5.04 ± 0.87 ng/mL, the concentration at 72 h [2, 5] was 3.13 ng/mL and the concentration at 72 h [2, 6] was 3.22 ± 0.71 ng/mL. For the same molecule, the concentration at 96 h [2, 5] was 1.89 ng/mL, the concentration at 96 h [2, 6] was 1.95 ± 0.58 ng/mL and the AUC [2, 8] was 529 ± 80.8 ng·h/mL. The Cmax [2, 8] was 16.2 ± 4.28 ng/mL, the half-life [2, 8] was 49 ± 7.79 h and the k el [2, 8] was 5.83e-06 s⁻¹. The Tmax ([2]; human, plasma, Referent clinical, clonazepam 2 mg tablet oral, N = 14, median, read-out: Tmax) was 1.5 h, the “F (absolute oral bioavailability)” value [3] was ≥ 90% and the “Fa × Fg” value [3] was 93–95%. For the same molecule, the Fh [3] was 95–97%, the “Fa × Fg” value ([3]; listed as clonazepam) was 93–95% and the Fh ([3]; listed as clonazepam) was 95–97%.
